Biological target: T1, Gonadotropin-releasing hormone receptor (Homo sapiens, UniProt P30968)
T1 sequence (P30968 whole entry): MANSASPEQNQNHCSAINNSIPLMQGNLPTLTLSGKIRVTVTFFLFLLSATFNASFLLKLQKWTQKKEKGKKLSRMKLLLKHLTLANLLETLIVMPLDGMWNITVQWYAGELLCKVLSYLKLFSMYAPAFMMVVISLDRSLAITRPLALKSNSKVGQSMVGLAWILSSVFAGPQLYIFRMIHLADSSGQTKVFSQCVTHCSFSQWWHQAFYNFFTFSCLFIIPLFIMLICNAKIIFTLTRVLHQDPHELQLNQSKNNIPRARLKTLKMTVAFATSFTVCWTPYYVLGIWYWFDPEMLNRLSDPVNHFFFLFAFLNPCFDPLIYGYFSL
Assay: Displacement of [125I]D-Trp6-LHRH from human GnRH receptor expressed in CHO-K1 cell membranes incubated for 1 hr by competitive binding assay

| SMILES | IC50 [nM] |
| --- | --- |
| Cc1c(N2CCN(Cc3cccc4cccnc34)CC2)c(=O)n(C[C@H](N)c2ccccc2)c(=O)n1Cc1c(F)cccc1C(F)(F)F | > 100 |
| Cc1c(N2CCN(Cc3cccc(F)c3)CC2)c(=O)n(C[C@H](N)c2ccccc2)c(=O)n1Cc1c(F)cccc1F | 3.8 |
| Cc1c(N2CCN(Cc3ccc([N+](=O)[O-])cc3)CC2)c(=O)n(C[C@H](N)c2ccccc2)c(=O)n1Cc1c(F)cccc1F | 36.9 |
| Cc1c(N2CCN(Cc3ccncc3)CC2)c(=O)n(C[C@H](N)c2ccccc2)c(=O)n1Cc1c(F)cccc1F | > 100 |
| Cc1c(N2CCNCC2)c(=O)n(C[C@H](N)c2ccccc2)c(=O)n1Cc1c(F)cccc1F | > 1000 |
| COc1cccc(CN2CCN(c3c(C)n(Cc4c(F)cccc4F)c(=O)n(C[C@H](N)c4ccccc4)c3=O)CC2)c1 | 14.8 |
| Cc1ccc(CN2CCN(c3c(C)n(Cc4c(F)cccc4F)c(=O)n(C[C@H](N)c4ccccc4)c3=O)CC2)cc1 | 65.5 |
| Cc1c(N2CCN(Cc3ccc(F)cc3)CC2)c(=O)n(C[C@H](N)c2ccccc2)c(=O)n1Cc1c(F)cccc1F | 48.6 |
| Cc1c(N2CCCCC2C)c(=O)n(C[C@H](N)c2ccccc2)c(=O)n1Cc1c(F)cccc1F (stereo not given in full) | > 100 |
| Cc1c(N2CCN(Cc3ccccc3OC(F)(F)F)CC2)c(=O)n(C[C@H](N)c2ccccc2)c(=O)n1Cc1c(F)cccc1F | > 100 |
| Cc1c(N2CCN(Cc3cccc(F)c3F)CC2)c(=O)n(C[C@H](N)c2ccccc2)c(=O)n1Cc1c(F)cccc1F | 10 |
| COc1ccc(CN2CCN(c3c(C)n(Cc4c(F)cccc4F)c(=O)n(C[C@H](N)c4ccccc4)c3=O)CC2)cc1 | > 100 |
| Cc1c(N2CCN(Cc3ccc(Cl)cc3)CC2)c(=O)n(C[C@H](N)c2ccccc2)c(=O)n1Cc1c(F)cccc1F | 14 |
| Cc1c(N2CCNC(CCO)C2)c(=O)n(C[C@H](N)c2ccccc2)c(=O)n1Cc1c(F)cccc1F (stereo not given in full) | > 100 |
| Cc1c(N2CCC(C)CC2)c(=O)n(C[C@H](N)c2ccccc2)c(=O)n1Cc1c(F)cccc1F | 75.6 |
| Cc1c(N2CCN[C@H](Cc3ccccc3)C2)c(=O)n(C[C@H](N)c2ccccc2)c(=O)n1Cc1c(F)cccc1F | > 100 |
| Cc1c(N2CCN(Cc3cccc(C#N)c3)CC2)c(=O)n(C[C@H](N)c2ccccc2)c(=O)n1Cc1c(F)cccc1F | 5 |
| Cc1c(N2CCN(Cc3ccc(C#N)cc3)CC2)c(=O)n(C[C@H](N)c2ccccc2)c(=O)n1Cc1c(F)cccc1F | 10 |

| SMILES | IC50 [nM] |
| --- | --- |
| Cc1c(N2CCN(Cc3ccccc3C(F)(F)F)CC2)c(=O)n(C[C@H](N)c2ccccc2)c(=O)n1Cc1c(F)cccc1F | 65.6 |
| Cc1c(N2CCN[C@@H](Cc3ccccc3)C2)c(=O)n(C[C@H](N)c2ccccc2)c(=O)n1Cc1c(F)cccc1F | > 100 |
| Cc1c(N2CCN(Cc3cccc(Cl)c3)CC2)c(=O)n(C[C@H](N)c2ccccc2)c(=O)n1Cc1c(F)cccc1F | 3.1 |
| Cc1c(N2CCN(CC3COc4ccccc4O3)CC2)c(=O)n(C[C@H](N)c2ccccc2)c(=O)n1Cc1c(F)cccc1F (stereo not given in full) | > 100 |
| Cc1c(N2CCN(Cc3ccc[nH]c3=O)CC2)c(=O)n(C[C@H](N)c2ccccc2)c(=O)n1Cc1c(F)cccc1C(F)(F)F | > 100 |
| Cc1c(N2CCN(Cc3cccnc3)CC2)c(=O)n(C[C@H](N)c2ccccc2)c(=O)n1Cc1c(F)cccc1F | 13.9 |
| Cc1c(N2CCC(Cc3ccccc3)C2)c(=O)n(C[C@H](N)c2ccccc2)c(=O)n1Cc1c(F)cccc1F (stereo not given in full) | > 100 |
| Cc1c(N2CCN(Cc3ccc(O)cc3)CC2)c(=O)n(C[C@H](N)c2ccccc2)c(=O)n1Cc1c(F)cccc1F | 35.3 |
| Cc1c(N2CCN(Cc3ccc(C(F)(F)F)cc3)CC2)c(=O)n(C[C@H](N)c2ccccc2)c(=O)n1Cc1c(F)cccc1F | 65.7 |
| Cc1cccc(CN2CCN(c3c(C)n(Cc4c(F)cccc4F)c(=O)n(C[C@H](N)c4ccccc4)c3=O)CC2)c1 | > 100 |
| Cc1c(N2CCNC(c3ccccc3)C2)c(=O)n(C[C@H](N)c2ccccc2)c(=O)n1Cc1c(F)cccc1F (stereo not given in full) | > 100 |
| Cc1c(N2CCN(Cc3cccc(C(F)(F)F)c3F)CC2)c(=O)n(C[C@H](N)c2ccccc2)c(=O)n1Cc1c(F)cccc1F | 1.1 |
| Cc1c(N2CCCC(C)C2)c(=O)n(C[C@H](N)c2ccccc2)c(=O)n1Cc1c(F)cccc1F (stereo not given in full) | 80.3 |
| Cc1c(N2CCCCC2)c(=O)n(C[C@H](N)c2ccccc2)c(=O)n1Cc1c(F)cccc1F | 129 |
| Cc1c(N2CCN(Cc3cccc(C(=O)O)c3)CC2)c(=O)n(C[C@H](N)c2ccccc2)c(=O)n1Cc1c(F)cccc1C(F)(F)F | > 100 |
| Cc1c(N2CCN(Cc3cccc(OC(F)(F)F)c3)CC2)c(=O)n(C[C@H](N)c2ccccc2)c(=O)n1Cc1c(F)cccc1F | 1.5 |
| Cc1c(N2CCN(CC3CCCCC3)CC2)c(=O)n(C[C@H](N)c2ccccc2)c(=O)n1Cc1c(F)cccc1F | > 1000 |

Other lines, results leading:

| IC50 [nM] | SMILES |
| --- | --- |
| > 100 | Cc1c(N2CCN(CCCc3ccccc3)CC2)c(=O)n(C[C@H](N)c2ccccc2)c(=O)n1Cc1c(F)cccc1F |
| > 100 | Cc1c(N2CCCC(Cc3ccccc3)C2)c(=O)n(C[C@H](N)c2ccccc2)c(=O)n1Cc1c(F)cccc1F (stereo not given in full) |
| 13.3 | Cc1c(N2CCN(Cc3ccccc3[N+](=O)[O-])CC2)c(=O)n(C[C@H](N)c2ccccc2)c(=O)n1Cc1c(F)cccc1F |
| > 100 | Cc1c(N2CCC(c3ccccc3)C2)c(=O)n(C[C@H](N)c2ccccc2)c(=O)n1Cc1c(F)cccc1F (stereo not given in full) |
| > 100 | Cc1c(N2CCN(C(=O)OCc3ccccc3)CC2)c(=O)n(C[C@H](N)c2ccccc2)c(=O)n1Cc1c(F)cccc1F |
| > 100 | Cc1c(N2CCCC(c3ccccc3)C2)c(=O)n(C[C@H](N)c2ccccc2)c(=O)n1Cc1c(F)cccc1F (stereo not given in full) |
| 4.1 | Cc1c(N2CCN(Cc3ccccc3F)CC2)c(=O)n(C[C@H](N)c2ccccc2)c(=O)n1Cc1c(F)cccc1F |
| > 100 | Cc1c(N2CCN(CCc3ccccc3)CC2)c(=O)n(C[C@H](N)c2ccccc2)c(=O)n1Cc1c(F)cccc1F |
| > 1000 | Cc1c(N2CCN(c3ccccc3)CC2)c(=O)n(C[C@H](N)c2ccccc2)c(=O)n1Cc1c(F)cccc1F |
| 6.8 | Cc1c(N2CCN(Cc3ccccc3C#N)CC2)c(=O)n(C[C@H](N)c2ccccc2)c(=O)n1Cc1c(F)cccc1F |
| 34.2 | Cc1c(N2CCC(Cc3ccccc3)CC2)c(=O)n(C[C@H](N)c2ccccc2)c(=O)n1Cc1c(F)cccc1F |
| > 1000 | Cc1c(N2CCN(c3ccccn3)CC2)c(=O)n(C[C@H](N)c2ccccc2)c(=O)n1Cc1c(F)cccc1F |
| 73.8 | Cc1ccccc1CN1CCN(c2c(C)n(Cc3c(F)cccc3F)c(=O)n(C[C@H](N)c3ccccc3)c2=O)CC1 |
| > 100 | Cc1c(N2CCN(CC(=O)c3ccccc3Cl)CC2)c(=O)n(C[C@H](N)c2ccccc2)c(=O)n1Cc1c(F)cccc1F |
| > 100 | Cc1c(N2CCN(Cc3ccccn3)CC2)c(=O)n(C[C@H](N)c2ccccc2)c(=O)n1Cc1c(F)cccc1F |
| > 100 | Cc1c(N2CCN(C(=O)c3ccccc3)CC2)c(=O)n(C[C@H](N)c2ccccc2)c(=O)n1Cc1c(F)cccc1F |
| > 100 | Cc1c(N2CCN(S(=O)(=O)c3ccccc3)CC2)c(=O)n(C[C@H](N)c2ccccc2)c(=O)n1Cc1c(F)cccc1F |
| 19.1 | Cc1c(N2CCN(Cc3ccccc3Cl)CC2)c(=O)n(C[C@H](N)c2ccccc2)c(=O)n1Cc1c(F)cccc1F |
| > 1000 | COc1ccccc1CN1CCN(c2c(C)n(Cc3c(F)cccc3F)c(=O)n(C[C@H](N)c3ccccc3)c2=O)CC1 |
| 12 | Cc1c(N2CCN(Cc3ccccc3)CC2)c(=O)n(C[C@H](N)c2ccccc2)c(=O)n1Cc1c(F)cccc1F |

Source: ChEMBL document CHEMBL4428102, “Discovery of an Orally Bioavailable Gonadotropin-Releasing Hormone Receptor Antagonist” (J Med Chem, 2016)
